{"source": "patent US10154957B2", "about": "“Microneedle device having a peptide therapeutic agent and an amino acid and methods of making and using the same” (3M INNOVATIVE PROPERTIES COMPANY, priority 2011, dated 2018)", "test": "Percent purity of PTHrP analogue (20 mg/mL formulations) in coating on flood-coated arrays stored at 40° C./96% RH (HPLC)", "format": "physicochemical", "details": "peptide 20 mg/mL in PBS", "protocol": "The protein or polypeptide content in the formulation coated on the microneedle arrays was determined using an Agilent 1100 HPLC system (Agilent Technologies, Wilmington, Del.) equipped with a binary pump, well-plated thermostated autosampler, thermostated column compartment, and a diode array UV detector. A Zorbax 300SB-C8 column (Agilent Technologies, Wilmington, Del.) having a 5 μm particle size and 2.1×150 mm inner diameter was used for the separations. The column was maintained at 50° C. The mobile phase consisted of two eluents. Eluent A was 0.1% TFA (trifluoroacetic acid) in water and eluent B was 0.1% TFA in acetonitrile (Spectrum Chemical, New Brunswick, N.J.). A linear gradient from 80/20 to 50/50 (A/B) was applied over 30 minutes. The flow rate was 0.4 mL/minute and the UV detection wavelength was set at 214 nm. The total run time was 34 minutes and the sample injection volume was 15 μL.\nA sample formulation containing 20 mg/mL of [Glu^22,25,Leu^23,28,31,Aib^29,Lys^26,30]hPTHrP(1-34)NH2 and 20 mg/mL of L-histidine monohydrochloride (His-HCl) in PBS was prepared. A control formulation was also prepared containing 20 mg/mL of [Glu^22,25,Leu^23,28,31,Aib^29,Lys^26,30]hPTHrP(1-34)NH2 in PBS. […] Microneedle arrays were coated with either the sample or the control formulation. The coating was applied by dropwise addition of 50 μL of the formulation to the portion of the array defined by the octagon shaped pattern of microneedles. The flood coated arrays (both sample and control formulation coated) were dried in an oven at 35° C. for 2 hours followed by 30° C. for 15 hours.\nAfter drying, the coated arrays were placed in a storage chamber that was maintained at 40° C. and 96% relative humidity (RH). The [Glu^22,25,Leu^23,28,31,Aib^29,Lys^26,30]hPTHrP(1-34)NH2 content of the coated arrays was determined following storage in the chamber for 1, 3, and 7 days. The initial [Glu^22,25,Leu^23,28,31,Aib^29,Lys^26,30]hPTHrP(1-34)NH2 content was also determined using freshly coated arrays (both sample and control formulation coated). The arrays used to determine initial content were stored in a refrigerator at about 4° C. and analyzed within one day of being prepared. At the designated time point, an array was taken from the chamber and washed with 0.1 N acetic acid (20 mL) to remove the formulation from the array. The resulting wash solution was analyzed for [Glu^22,25,Leu^23,28,31,Aib^29,Lys^26,30]hPTHrP(1-34)NH2 content using the HPLC method described above. The results were quantified against an external standard of [Glu^22,25,Leu^23,28,31,Aib^29,Lys^26,30]hPTHrP(1-34)NH2. At each time point, the percent purity of [Glu^22,25,Leu^23,28,31,Aib^29,Lys^26,30]hPTHrP(1-34)NH2 in the coating was determined by measuring the peak area for [Glu^22,25,Leu^23,28,31,Aib^29,Lys^26,30]hPTHrP(1-34)NH2 in the selected coating and dividing it by the total peak area measured for all [Glu^22,25,Leu^23,28,31,Aib^29,Lys^26,30]hPTHrP(1-34)NH2 related peaks.\nThe same procedure as described in Example 9 was used with the exception that the sample formulation contained 20 mg/mL of L-arginine hydrochloride, instead of L-histidine monohydrochloride."}
{"substance": "[Glu^22,25,Leu^23,28,31,Aib^29,Lys^26,30]hPTHrP(1-34)NH2", "values": [{"measurement": "Percent Purity of [Glu^22,25, Leu^23,28,31, Aib^29, Lys^26,30]hPTHrP(1-34)NH2", "setting": "Amino Acid L-Arginine (Arg-HCl 20 mg/mL), Day 1 at 40° C./96% RH", "result": 88.4, "unit": "%"}, {"measurement": "Percent Purity of [Glu^22,25, Leu^23,28,31, Aib^29, Lys^26,30]hPTHrP(1-34)NH2", "setting": "Amino Acid L-Arginine (Arg-HCl 20 mg/mL), Day 3 at 40° C./96% RH", "result": 76.1, "unit": "%"}, {"measurement": "Percent Purity of [Glu^22,25, Leu^23,28,31, Aib^29, Lys^26,30]hPTHrP(1-34)NH2", "setting": "Amino Acid L-Arginine (Arg-HCl 20 mg/mL), Day 7 at 40° C./96% RH", "result": 46.4, "unit": "%"}, {"measurement": "Percent Purity of [Glu^22,25, Leu^23,28,31, Aib^29, Lys^26,30]hPTHrP(1-34)NH2", "setting": "Amino Acid L-Arginine (Arg-HCl 20 mg/mL), Initial", "result": 99.0, "unit": "%"}, {"measurement": "Percent Purity of [Glu^22,25, Leu^23,28,31, Aib^29, Lys^26,30]hPTHrP(1-34)NH2", "setting": "Amino Acid L-Histidine (His-HCl 20 mg/mL), Day 1 at 40° C./96% RH", "result": 99.3, "unit": "%"}, {"measurement": "Percent Purity of [Glu^22,25, Leu^23,28,31, Aib^29, Lys^26,30]hPTHrP(1-34)NH2", "setting": "Amino Acid L-Histidine (His-HCl 20 mg/mL), Day 3 at 40° C./96% RH", "result": 98.9, "unit": "%"}, {"measurement": "Percent Purity of [Glu^22,25, Leu^23,28,31, Aib^29, Lys^26,30]hPTHrP(1-34)NH2", "setting": "Amino Acid L-Histidine (His-HCl 20 mg/mL), Day 7 at 40° C./96% RH", "result": 97.9, "unit": "%"}, {"measurement": "Percent Purity of [Glu^22,25, Leu^23,28,31, Aib^29, Lys^26,30]hPTHrP(1-34)NH2", "setting": "Amino Acid L-Histidine (His-HCl 20 mg/mL), Initial", "result": 99.4, "unit": "%"}, {"measurement": "Percent Purity of [Glu^22,25, Leu^23,28,31, Aib^29, Lys^26,30]hPTHrP(1-34)NH2", "setting": "Amino Acid None (control), Day 1 at 40° C./96% RH", "result": 85.6, "unit": "%"}, {"measurement": "Percent Purity of [Glu^22,25, Leu^23,28,31, Aib^29, Lys^26,30]hPTHrP(1-34)NH2", "setting": "Amino Acid None (control), Day 3 at 40° C./96% RH", "result": 53.1, "unit": "%"}, {"measurement": "Percent Purity of [Glu^22,25, Leu^23,28,31, Aib^29, Lys^26,30]hPTHrP(1-34)NH2", "setting": "Amino Acid None (control), Day 7 at 40° C./96% RH", "result": 21.1, "unit": "%"}, {"measurement": "Percent Purity of [Glu^22,25, Leu^23,28,31, Aib^29, Lys^26,30]hPTHrP(1-34)NH2", "setting": "Amino Acid None (control), Initial", "result": 98.9, "unit": "%"}]}
